Test results from article PMC12749166, “Fragment-based drug design of a bacterial kinase inhibitor capable of increasing the antibiotic sensitivity of clinical isolates” (Communications Chemistry, 2025).

Key:
[1] = molecular target: T1, APH(3’)-Ib (Escherichia coli, UniProt P14509); experiment: biochemical; set-up: species or system E. coli and K. pneumoniae
T1 construct: His-tag (inferred from HisTrap purification); made in house; host or cells: E. coli BL21

[2] = system: P. aeruginosa C0307; experiment: Checkerboard assay of 83 with kanamycin A; format: cell-based; conditions: for MIC of kanamycin A: 18 h at 37 °C

T1 sequence (P14509 whole entry): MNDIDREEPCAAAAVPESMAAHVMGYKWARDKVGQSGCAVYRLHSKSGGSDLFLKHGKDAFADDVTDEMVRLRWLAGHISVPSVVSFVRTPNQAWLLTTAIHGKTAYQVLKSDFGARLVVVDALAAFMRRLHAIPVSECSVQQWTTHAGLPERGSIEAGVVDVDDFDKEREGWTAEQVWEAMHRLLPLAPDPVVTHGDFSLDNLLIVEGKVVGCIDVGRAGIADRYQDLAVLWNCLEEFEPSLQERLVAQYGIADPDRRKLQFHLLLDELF

SMILES: Clc1cnc2[nH]ccc2c1-c1ccn[nH]1 [Compound 83]
- inhibition at 100 µM [1]: 55%
- MIC of kanamycin A ([2]; 0 µg mL^−1 imipenem, [83] 2 µg mL^−1): 64 µg/mL
- MIC of kanamycin A ([2]; 0 µg mL^−1 imipenem, [83] 4 µg mL^−1): 64 µg/mL
- MIC of kanamycin A ([2]; 0 µg mL^−1 imipenem, [83] 8 µg mL^−1): 64 µg/mL
- MIC of kanamycin A ([2]; 0 µg mL^−1 imipenem, [83] 16 µg mL^−1): 64 µg/mL
- MIC of kanamycin A ([2]; 0 µg mL^−1 imipenem, [83] 32 µg mL^−1): 64 µg/mL
- MIC of kanamycin A ([2]; 0 µg mL^−1 imipenem, [83] 64 µg mL^−1): 64 µg/mL
- MIC of kanamycin A ([2]; 0 µg mL^−1 imipenem, [83] 128 µg mL^−1): 32 µg/mL
- MIC of kanamycin A ([2]; 0.05 µg mL^−1 imipenem, [83] 2 µg mL^−1): 64 µg/mL
- MIC of kanamycin A ([2]; 0.05 µg mL^−1 imipenem, [83] 4 µg mL^−1): 64 µg/mL
- MIC of kanamycin A ([2]; 0.05 µg mL^−1 imipenem, [83] 8 µg mL^−1): 64 µg/mL
- MIC of kanamycin A ([2]; 0.05 µg mL^−1 imipenem, [83] 16 µg mL^−1): 64 µg/mL
- MIC of kanamycin A ([2]; 0.05 µg mL^−1 imipenem, [83] 32 µg mL^−1): 64 µg/mL
- MIC of kanamycin A ([2]; 0.05 µg mL^−1 imipenem, [83] 64 µg mL^−1): 64 µg/mL
- MIC of kanamycin A ([2]; 0.05 µg mL^−1 imipenem, [83] 128 µg mL^−1): 32 µg/mL
- checkerboard well reading (growth) ([2]; Supp. Figure 3 A, 83 1 µg.mL-1, kanamycin A 0 µg.mL-1): 1.117
- checkerboard well reading (growth) ([2]; Supp. Figure 3 A, 83 1 µg.mL-1, kanamycin A 2 µg.mL-1): 1.340
- checkerboard well reading (growth) ([2]; Supp. Figure 3 A, 83 1 µg.mL-1, kanamycin A 4 µg.mL-1): 1.454
- checkerboard well reading (growth) ([2]; Supp. Figure 3 A, 83 1 µg.mL-1, kanamycin A 8 µg.mL-1): 1.268
- checkerboard well reading (growth) ([2]; Supp. Figure 3 A, 83 16 µg.mL-1, kanamycin A 0 µg.mL-1): 1.272
- checkerboard well reading (growth) ([2]; Supp. Figure 3 A, 83 16 µg.mL-1, kanamycin A 2 µg.mL-1): 1.771
- checkerboard well reading (growth) ([2]; Supp. Figure 3 A, 83 16 µg.mL-1, kanamycin A 4 µg.mL-1): 1.508
- checkerboard well reading (growth) ([2]; Supp. Figure 3 A, 83 16 µg.mL-1, kanamycin A 8 µg.mL-1): 1.668
- checkerboard well reading (growth) ([2]; Supp. Figure 3 A, 83 16 µg.mL-1, kanamycin A 16 µg.mL-1): 1.123
- checkerboard well reading (growth) ([2]; Supp. Figure 3 A, 83 16 µg.mL-1, kanamycin A 32 µg.mL-1): 1.123
- checkerboard well reading (growth) ([2]; Supp. Figure 3 A, 83 16 µg.mL-1, kanamycin A 64 µg.mL-1): 0.184
- checkerboard well reading (growth) ([2]; Supp. Figure 3 A, 83 16 µg.mL-1, kanamycin A 128 µg.mL-1): 0.041
- checkerboard well reading (growth) ([2]; Supp. Figure 3 A, 83 32 µg.mL-1, kanamycin A 0 µg.mL-1): 1.376
- checkerboard well reading (growth) ([2]; Supp. Figure 3 A, 83 32 µg.mL-1, kanamycin A 2 µg.mL-1): 1.667
- checkerboard well reading (growth) ([2]; Supp. Figure 3 A, 83 32 µg.mL-1, kanamycin A 4 µg.mL-1): 1.435
- checkerboard well reading (growth) ([2]; Supp. Figure 3 A, 83 32 µg.mL-1, kanamycin A 8 µg.mL-1): 1.524
- checkerboard well reading (growth) ([2]; Supp. Figure 3 A, 83 32 µg.mL-1, kanamycin A 16 µg.mL-1): 1.359
- checkerboard well reading (growth) ([2]; Supp. Figure 3 A, 83 32 µg.mL-1, kanamycin A 32 µg.mL-1): 1.130
- checkerboard well reading (growth) ([2]; Supp. Figure 3 A, 83 32 µg.mL-1, kanamycin A 64 µg.mL-1): 0.118
- checkerboard well reading (growth) ([2]; Supp. Figure 3 A, 83 32 µg.mL-1, kanamycin A 128 µg.mL-1): 0.042
- checkerboard well reading (growth) ([2]; Supp. Figure 3 A, 83 64 µg.mL-1, kanamycin A 0 µg.mL-1): 1.213
- checkerboard well reading (growth) ([2]; Supp. Figure 3 A, 83 64 µg.mL-1, kanamycin A 2 µg.mL-1): 1.320
- checkerboard well reading (growth) ([2]; Supp. Figure 3 A, 83 64 µg.mL-1, kanamycin A 4 µg.mL-1): 1.451
- checkerboard well reading (growth) ([2]; Supp. Figure 3 A, 83 64 µg.mL-1, kanamycin A 8 µg.mL-1): 1.433
- checkerboard well reading (growth) ([2]; Supp. Figure 3 A, 83 64 µg.mL-1, kanamycin A 16 µg.mL-1): 1.312
- checkerboard well reading (growth) ([2]; Supp. Figure 3 A, 83 64 µg.mL-1, kanamycin A 32 µg.mL-1): 1.055
- checkerboard well reading (growth) ([2]; Supp. Figure 3 A, 83 64 µg.mL-1, kanamycin A 64 µg.mL-1): 0.042
- checkerboard well reading (growth) ([2]; Supp. Figure 3 A, 83 64 µg.mL-1, kanamycin A 128 µg.mL-1): 0.044
- checkerboard well reading (growth) ([2]; Supp. Figure 3 A, 83 128 µg.mL-1, kanamycin A 0 µg.mL-1): 1.324
- checkerboard well reading (growth) ([2]; Supp. Figure 3 A, 83 128 µg.mL-1, kanamycin A 2 µg.mL-1): 1.439
- checkerboard well reading (growth) ([2]; Supp. Figure 3 A, 83 128 µg.mL-1, kanamycin A 4 µg.mL-1): 1.308
- checkerboard well reading (growth) ([2]; Supp. Figure 3 A, 83 128 µg.mL-1, kanamycin A 8 µg.mL-1): 1.307
- checkerboard well reading (growth) ([2]; Supp. Figure 3 A, 83 128 µg.mL-1, kanamycin A 16 µg.mL-1): 1.218
- checkerboard well reading (growth) ([2]; Supp. Figure 3 A, 83 128 µg.mL-1, kanamycin A 32 µg.mL-1): 0.227
- checkerboard well reading (growth) ([2]; Supp. Figure 3 A, 83 128 µg.mL-1, kanamycin A 64 µg.mL-1): 0.039
- checkerboard well reading (growth) ([2]; Supp. Figure 3 A, 83 128 µg.mL-1, kanamycin A 128 µg.mL-1): 0.039
- checkerboard well reading (growth) ([2]; Supp. Figure 3 B, 83 1 µg.mL-1, kanamycin A 0 µg.mL-1): 1.239
- checkerboard well reading (growth) ([2]; Supp. Figure 3 B, 83 1 µg.mL-1, kanamycin A 2 µg.mL-1): 1.239
- checkerboard well reading (growth) ([2]; Supp. Figure 3 B, 83 1 µg.mL-1, kanamycin A 4 µg.mL-1): 1.159
- checkerboard well reading (growth) ([2]; Supp. Figure 3 B, 83 1 µg.mL-1, kanamycin A 8 µg.mL-1): 1.192
- checkerboard well reading (growth) ([2]; Supp. Figure 3 B, 83 1 µg.mL-1, kanamycin A 16 µg.mL-1): 1.219
- checkerboard well reading (growth) ([2]; Supp. Figure 3 B, 83 1 µg.mL-1, kanamycin A 32 µg.mL-1): 1.181
- checkerboard well reading (growth) ([2]; Supp. Figure 3 B, 83 1 µg.mL-1, kanamycin A 64 µg.mL-1): 0.113
